Assays:
[1] = target: T1, Adenosine receptor A2b (Homo sapiens) (UniProt P29275); assay: Displacement of [3H]DPCPX from human recombinant A2B receptor expressed in human HEK293 cell membranes at 1 uM incubated for 30 mins by radioligand binding competition assay relative to control
T1 sequence (whole entry): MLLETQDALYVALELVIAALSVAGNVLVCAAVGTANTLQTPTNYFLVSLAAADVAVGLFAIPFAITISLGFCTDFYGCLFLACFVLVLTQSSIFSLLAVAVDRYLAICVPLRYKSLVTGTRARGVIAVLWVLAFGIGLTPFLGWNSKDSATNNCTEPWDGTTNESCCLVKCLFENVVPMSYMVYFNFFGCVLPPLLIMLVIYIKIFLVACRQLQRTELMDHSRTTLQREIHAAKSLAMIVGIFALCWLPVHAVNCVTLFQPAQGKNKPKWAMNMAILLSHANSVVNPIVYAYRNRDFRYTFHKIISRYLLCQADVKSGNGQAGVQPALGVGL

[2] = target: T2, Adenosine receptor A3 (Homo sapiens) (UniProt P0DMS8); assay: Displacement of [3H]NECA from human A3 receptor expressed in human HeLa cell membranes at 1 uM incubated for 180 mins by radioligand binding competition assay relative to control
T2 sequence (whole entry): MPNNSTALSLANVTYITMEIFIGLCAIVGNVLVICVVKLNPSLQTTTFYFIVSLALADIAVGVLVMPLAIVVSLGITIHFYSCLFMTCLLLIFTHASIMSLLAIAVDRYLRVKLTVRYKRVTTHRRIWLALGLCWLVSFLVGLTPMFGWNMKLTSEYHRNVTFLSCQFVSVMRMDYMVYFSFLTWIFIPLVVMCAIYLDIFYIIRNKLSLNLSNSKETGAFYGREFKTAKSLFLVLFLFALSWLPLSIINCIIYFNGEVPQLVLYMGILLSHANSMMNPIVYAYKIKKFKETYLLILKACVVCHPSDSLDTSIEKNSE

[3] = target: Adenosine receptor A2a (Homo sapiens, UniProt P29274); assay: Displacement of [3H]ZM241385 from human recombinant A2A receptor expressed in human HeLa cell membranes at 1 uM incubated for 30 mins by radioligand binding competition assay relative to control
Adenosine receptor A2a, sequence (P29274 whole entry): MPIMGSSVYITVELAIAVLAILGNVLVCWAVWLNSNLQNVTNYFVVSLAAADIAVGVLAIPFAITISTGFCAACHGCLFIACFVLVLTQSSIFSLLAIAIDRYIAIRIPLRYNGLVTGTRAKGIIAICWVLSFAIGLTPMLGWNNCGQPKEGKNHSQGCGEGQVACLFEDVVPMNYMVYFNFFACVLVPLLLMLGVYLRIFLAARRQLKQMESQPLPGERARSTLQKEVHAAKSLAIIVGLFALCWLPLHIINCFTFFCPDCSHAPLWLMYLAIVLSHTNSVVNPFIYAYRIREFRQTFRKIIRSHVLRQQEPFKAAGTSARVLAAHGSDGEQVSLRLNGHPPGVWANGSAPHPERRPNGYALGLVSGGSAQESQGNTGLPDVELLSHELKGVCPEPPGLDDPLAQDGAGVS

[4] = target: T3, Adenosine receptor A1 (Homo sapiens) (UniProt P30542); assay: Displacement of [3H]DPCPX from human recombinant A1 receptor expressed in CHOA1 cell membranes at 1 uM incubated for 60 mins by radioligand binding competition assay relative to control
T3 sequence (whole entry): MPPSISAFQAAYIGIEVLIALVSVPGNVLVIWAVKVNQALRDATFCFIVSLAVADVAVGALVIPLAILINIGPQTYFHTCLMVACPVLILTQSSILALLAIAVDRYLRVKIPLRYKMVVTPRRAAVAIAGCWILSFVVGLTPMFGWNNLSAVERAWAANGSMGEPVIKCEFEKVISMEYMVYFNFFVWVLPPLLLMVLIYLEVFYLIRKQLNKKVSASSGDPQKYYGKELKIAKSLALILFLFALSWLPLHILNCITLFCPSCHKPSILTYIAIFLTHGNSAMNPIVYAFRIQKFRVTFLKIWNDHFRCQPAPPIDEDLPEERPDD

[5] = target: T4, Adenosine receptor A2b (Homo sapiens, UniProt P29275); assay: Displacement of [3H]DPCPX from human recombinant A2B receptor expressed in human HEK293 cell membranes incubated for 30 mins by radioligand binding competition assay
T4 sequence (P29275 whole entry): T1 sequence (whole entry)

| inhibition [1] [%] | inhibition [2] [%] | inhibition [3] [%] | inhibition [4] [%] | Ki [5] [µM] | Compound |
| --- | --- | --- | --- | --- | --- |
| 7 | 19 | 10 | 11 |  | CC1=C(C(=O)OC(C(F)(F)F)C(F)(F)F)C(c2cccs2)n2c(nc3ccccc32)N1 (racemic) |
| 23 | 5 | 1 | 1 |  | CC1=C(C(=O)OC(C)C(F)(F)F)C(c2ccoc2)NC(=O)N1 (stereo in doubt; 14j-D2) |
|  | 21 | 3 | 11 |  | CC1=C(C(=O)OC(C)C)C(c2ccsc2)n2c(nc3ccccc32)N1 (stereo unspecified) |
|  | 1 | 16 | 8 |  | CCOC(=O)C1=C(C)Nc2nc3ccccc3n2C1c1cccs1 (stereo unspecified) |
| 27 | 4 | 2 | 34 |  | CC1=C(C(=O)OC(C)C(F)(F)F)C(c2cccs2)n2c(nc3ccccc32)N1 (racemic) |
| 39 | 5 | 10 | 3 |  | CC(C)OC(=O)C1=C(C(F)(F)F)Nc2nc3ccccc3n2C1c1ccco1 (racemic) |
|  | 8 | 3 | 12 |  | CC1=C(C(=O)OCC(F)(F)F)[C@H](c2ccco2)n2c(nc3ccccc32)N1 |
| 16 | 1 | 20 | 28 |  | CCOC(=O)C1=C(C(F)(F)F)NC(=O)NC1c1cccs1 (racemic) |
| 35 | 9 | 19 | 7 |  | CC1=C(C(=O)O[C@@H](C)C(F)(F)F)[C@H](c2ccco2)n2c(nc3ccccc32)N1 |
|  |  |  |  | 0.303 | CC1=C(C(=O)OC(C)C(F)(F)F)C(c2ccco2)NC(=O)N1 (stereo in doubt; 14i-D2) [listing 1 of 2 here] |
| 21 | 6 | 10 | 24 |  | CC1=C(C(=O)OC(C(F)(F)F)C(F)(F)F)C(c2ccoc2)n2c(nc3ccccc32)N1 (racemic) |
|  |  |  |  | 0.643 | CC1=C(C(=O)OC(C)C(F)(F)F)C(c2ccsc2)NC(=O)N1 (stereo in doubt; 14l-D1) [listing 1 of 2 here] |
| 1 | 1 | 15 | 3 |  | CC1=C(C(=O)OC(C(F)(F)F)C(F)(F)F)C(c2ccsc2)n2c(nc3ccccc32)N1 (racemic) |
|  | 7 | 1 | 1 |  | CC1=C(C(=O)OC(C)C(F)(F)F)C(c2ccco2)NC(=O)N1 (stereo in doubt; 14i-D2) [listing 2 of 2 here] |
| 1 | 2 | 1 | 6 |  | CC1=C(C(=O)OC(C(F)(F)F)C(F)(F)F)C(c2ccco2)NC(=O)N1 (racemic) |
| 38 | 19 | 4 | 7 |  | CCOC(=O)C1=C(C(F)(F)F)Nc2nc3ccccc3n2C1c1cccs1 (racemic) |
| 1 | 1 | 3 | 3 |  | CC1=C(C(=O)OCC(F)(F)F)C(c2cccs2)NC(=O)N1 (racemic) |
|  | 3 | 17 | 1 |  | CC1=C(C(=O)OC(C)C)C(c2cccs2)n2c(nc3ccccc32)N1 (stereo unspecified) |
|  |  |  |  | 0.0615 | CC1=C(C(=O)OC(C)C(F)(F)F)C(c2ccco2)NC(=O)N1 (stereo in doubt; 14i-D1) [listing 1 of 2 here] |
| 16 | 24 | 2 | 16 |  | CC1=C(C(=O)OC(C(F)(F)F)C(F)(F)F)C(c2ccco2)n2c(nc3ccccc32)N1 (racemic) |
| 37 | 1 | 21 | 27 |  | CC(C)OC(=O)C1=C(C(F)(F)F)NC(=O)NC1c1ccoc1 (racemic) |
| 30 | 2 | 17 | 7 |  | CC1=C(C(=O)OCC(F)(F)F)C(c2ccsc2)n2c(nc3ccccc32)N1 (racemic) |

| inhibition [1] [%] | inhibition [2] [%] | inhibition [3] [%] | inhibition [4] [%] | Ki [5] [µM] | Compound |
| --- | --- | --- | --- | --- | --- |
| 1 | 1 | 2 | 3 |  | CC1=C(C(=O)OC(C)C(F)(F)F)C(c2ccsc2)NC(=O)N1 (stereo in doubt; 14l-D2) |
| 1 | 1 | 1 | 9 |  | CC1=C(C(=O)OC(C(F)(F)F)C(F)(F)F)C(c2cccs2)NC(=O)N1 (racemic) |
| 48 | 2 | 3 | 10 |  | CC(C)OC(=O)C1=C(C(F)(F)F)Nc2nc3ccccc3n2C1c1ccsc1 (racemic) |
|  | 1 | 11 | 7 |  | CCOC(=O)C1=C(C)Nc2nc3ccccc3n2C1c1ccoc1 (stereo unspecified) |
| 1 | 8 | 1 | 17 |  | CC1=C(C(=O)OC(C(F)(F)F)C(F)(F)F)C(c2ccsc2)NC(=O)N1 (racemic) |
|  | 2 | 2 | 3 |  | CC1=C(C(=O)OC(C)C(F)(F)F)C(c2ccsc2)NC(=O)N1 (stereo in doubt; 14l-D1) [listing 2 of 2 here] |
| 17 | 1 | 1 | 4 |  | CC(C)OC(=O)C1=C(C(F)(F)F)Nc2nc3ccccc3n2C1c1cccs1 (racemic) |
| 18 | 1 | 2 | 2 |  | CC1=C(C(=O)O[C@H](C)C(F)(F)F)[C@H](c2ccco2)n2c(nc3ccccc32)N1 |
| 24 | 1 | 1 | 2 |  | CC1=C(C(=O)OCC(F)(F)F)C(c2ccsc2)NC(=O)N1 (racemic) |
| 6 | 2 | 7 | 1 |  | CC1=C(C(=O)OCC(F)(F)F)C(c2cccs2)n2c(nc3ccccc32)N1 (racemic) |
| 47 | 2 | 24 | 2 |  | CC1=C(C(=O)OC(C)C(F)(F)F)C(c2ccsc2)n2c(nc3ccccc32)N1 (racemic) |
|  | 2 | 10 | 3 |  | CCOC(=O)C1=C(C)Nc2nc3ccccc3n2C1c1ccsc1 (stereo unspecified) |
| 2 | 1 | 22 | 7 |  | CC1=C(C(=O)OC(C(F)(F)F)C(F)(F)F)C(c2ccoc2)NC(=O)N1 (racemic) |
|  | 3 | 17 | 10 |  | CCOC(=O)C1=C(C(F)(F)F)Nc2nc3ccccc3n2[C@H]1c1ccoc1 |
|  | 2 | 23 | 12 |  | CC1=C(C(=O)OC(C)C)C(c2ccoc2)n2c(nc3ccccc32)N1 (stereo unspecified) |
| 1 | 3 | 1 | 16 |  | CC1=C(C(=O)OC(C)C(F)(F)F)C(c2cccs2)NC(=O)N1 (stereo in doubt; 14k-D2) |
| 4 | 3 | 2 | 12 |  | CC1=C(C(=O)OC(C)C(F)(F)F)C(c2cccs2)NC(=O)N1 (stereo in doubt; 14k-D1) |
|  | 12 | 1 | 10 |  | CC1=C(C(=O)OC(C)C(F)(F)F)C(c2ccoc2)NC(=O)N1 (stereo in doubt; 14j-D1) [listing 1 of 2 here] |
| 19 | 7 | 13 | 8 |  | CC(C)OC(=O)C1=C(C(F)(F)F)NC(=O)NC1c1cccs1 (racemic) |
|  |  |  |  | 0.234 | CC1=C(C(=O)OC(C)C(F)(F)F)C(c2ccoc2)NC(=O)N1 (stereo in doubt; 14j-D1) [listing 2 of 2 here] |
|  | 11 | 3 | 1 |  | CC1=C(C(=O)OC(C)C(F)(F)F)C(c2ccco2)NC(=O)N1 (stereo in doubt; 14i-D1) [listing 2 of 2 here] |
|  | 1 | 14 | 5 |  | CCOC(=O)C1=C(C)Nc2nc3ccccc3n2C1c1ccco1 (stereo unspecified) |
